Usually IC50 stands for the concentration needed to halve the response being measured.

This note sets out measurements from patent publication US20240360148A1 (SUVALENT THERAPEUTICS, INC., priority 2021, published 2024).

SAE1, sequence (Q9UBE0 whole entry): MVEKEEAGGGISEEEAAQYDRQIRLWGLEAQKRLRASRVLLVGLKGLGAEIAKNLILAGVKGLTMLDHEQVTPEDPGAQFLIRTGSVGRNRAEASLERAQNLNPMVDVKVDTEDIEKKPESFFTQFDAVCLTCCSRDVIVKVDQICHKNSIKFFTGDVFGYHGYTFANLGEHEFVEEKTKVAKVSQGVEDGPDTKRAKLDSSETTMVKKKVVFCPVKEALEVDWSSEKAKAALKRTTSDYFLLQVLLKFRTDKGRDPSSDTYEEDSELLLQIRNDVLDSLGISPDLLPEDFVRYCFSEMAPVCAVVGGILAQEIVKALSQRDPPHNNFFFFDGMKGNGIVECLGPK
SAE1, sequence (Q9UBT2 whole entry): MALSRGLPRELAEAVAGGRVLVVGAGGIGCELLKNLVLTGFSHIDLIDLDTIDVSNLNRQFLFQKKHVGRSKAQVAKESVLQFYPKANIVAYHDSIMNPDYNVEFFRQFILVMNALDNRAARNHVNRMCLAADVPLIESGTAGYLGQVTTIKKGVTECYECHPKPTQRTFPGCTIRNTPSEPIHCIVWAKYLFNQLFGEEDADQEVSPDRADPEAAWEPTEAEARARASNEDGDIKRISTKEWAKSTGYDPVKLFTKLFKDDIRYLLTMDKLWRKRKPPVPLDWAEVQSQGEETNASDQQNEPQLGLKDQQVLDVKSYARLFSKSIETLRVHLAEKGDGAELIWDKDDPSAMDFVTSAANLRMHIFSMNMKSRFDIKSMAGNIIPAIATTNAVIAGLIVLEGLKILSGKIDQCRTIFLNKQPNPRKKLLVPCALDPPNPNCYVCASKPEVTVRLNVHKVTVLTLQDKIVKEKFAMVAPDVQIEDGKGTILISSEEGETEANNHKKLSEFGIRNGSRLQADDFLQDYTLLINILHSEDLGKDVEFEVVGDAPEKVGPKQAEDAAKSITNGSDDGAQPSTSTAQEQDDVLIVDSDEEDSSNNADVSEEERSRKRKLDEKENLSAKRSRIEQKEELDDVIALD

This test has as its target SAE1 (Homo sapiens (Human), UniProt Q9UBE0+Q9UBT2). The test is described as follows: SAE High Throughput Biochemical Assay (HTRF), 15 min preincubation. To be noted: read-out: 15 min preincubation HTRF IC50 (μM) Ave, SAE1 12.5 nM, ATP 100 μM. As for the experimental part:
Assay buffer was prepared [50 mM HEPES, pH 7.5, 0.1% BSA and 10 mM MgCl2] as was the Stop Buffer [100 mM HEPES, pH 7.5, 0.05% Tween20, and 410 mM KF]. The 2×Reaction Buffer [80 nM SUMO-GST, 80 nM UBC9-His, 200 μM ATP and diluted in Assay Buffer] and Antibody Reaction Mix [13.34 nM anti-GSTXL665, 1.66 nM anti-His EuK and Diluted in Stop Buffer] were also prepared. Compounds were dissolved at 200×in DMSO in a 384-well plate. Serial dilutions were performed in DMSO for each compound, and then each concentration was diluted another 50-fold in Assay Buffer, to 4× the final concentration. 2.5 μL of each concentration was transferred into its own well in a 384-well plate. SAE1 was then diluted to 4× in Assay Buffer, and 2.5 μL of 4×SAE1 was mixed into each compound-containing well. After incubating for 15 minutes at RT, 5 μL of 2×Reaction Buffer was mixed into every well. Then after another 45 minutes at RT, 10 μL of Antibody Reaction Mix was added and mixed into every well. This plate was then read on an HTRF-compatible plate reader after 2 hours at RT, and again after sitting at RT overnight. [Final Component Concentrations: SAE1: 12.5 nM; SUMO-GST: 40 nM; UBC9-His: 40 nM; Anti-GST-XL665: 6.67 nM; Anti-His-EuK: 0.83 nM; and ATP: 100 μM] Alternatively, the compounds are tested at a single concentration of 25 micromolar and the percent of control is measured.
Background: In TR-FRET formats the signal depends on donor and acceptor labels being close together.
On to `CCn1cc(-c2sccc2C2CN(C(=O)/C=C/CN(C)C)Cc3sc(C#N)cc32)c(C(F)(F)F)n1` (stereo not shown) [Example 207, (E)-6-(4-(Dimethylamino)but-2-enoyl)-4-(2-(1-ethyl-3-(trifluoromethyl)-1H pyrazol-4-yl)thiophen-3-yl)-4,5,6,7-tetrahydrothieno[2,3-c]pyridine-2-carbonitrile], for which the IC50 was > 25 µM.

Consider `CNC(=O)C(C)n1cc(-c2ccccc2[C@@H]2CN(C(=O)/C=C/CN(C)C)Cc3sc(C#N)cc32)c(C(F)(F)F)n1` (stereo partly drawn) [Example 161, 2-(4-(2-((S)-2-Cyano-6-((E)-4-(dimethylamino)but-2-enoyl)-4,5,6,7-tetrahydrothieno[2,3-c]pyridin-4-yl)phenyl)-3-(trifluoromethyl)-1 H-pyrazol-1-yl)-N-methylpropanamide], for which the 50% inhibitory concentration (IC50) amounted to 15.8 µM.

Consider `CCn1cc(-c2ccccc2[C@@H]2CN(C(=O)/C=C/C3COCCN3)Cc3sc(C#N)cc32)c(C(F)(F)F)n1` (stereo partly drawn) [Example 76, (4S)-4-(2-(1-Ethyl-3-(trifluoromethyl)-1 H-pyrazol-4-yl)phenyl)-6-((E)-3-(morpholin-3-yl)acryloyl)-4,5,6,7-tetrahydrothieno[2,3-c]pyridine-2-carbonitrile], for which the IC50 is 14.7 µM.

For the compound `CN(C)C/C=C/C(=O)N1Cc2sc(C#N)cc2[C@H](c2ccccc2C#N)C1` [Example 4, (S, E)-4-(2-Cyanophenyl)-6-(4-(dimethylamino)but-2-enoyl)-4,5,6,7-tetrahydrothieno[2,3-c]pyridine-2-carbonitrile], the 50% inhibitory concentration (IC50) was > 25 µM.

`CCn1cc(-c2cc(NC(C)=O)ccc2C2CN(C(=O)/C=C/CN(C)C)Cc3sc(C#N)cc32)c(C(F)(F)F)n1` (stereo not shown) [Example 197, (E)-N-(4-(2-Cyano-6-(4-(dimethylamino)but-2-enoyl)-4,5,6,7-tetrahydrothieno[2,3-c]pyridin-4-yl)-3-(1-ethyl-3-(trifluoromethyl)-1 H-pyrazol-4-yl)phenyl)acetamide]: the IC50 was 15.2 µM.

Regarding `CN(C)C/C=C/C(=O)N1Cc2sc(C#N)cc2C(c2ccccc2-c2cn(CCC#N)nc2C(F)(F)F)C1` (stereo not shown) [Example 154, (E)-4-(2-(1-(2-Cyanoethyl)-3-(trifluoromethyl)-1H pyrazol-4-yl)phenyl)-6-(4-(dimechylamino)but-2-enoyl)-4,5,6,7-tetrahydrothieno[2,3-c]pyridine-2-carbonitrile], the IC50 is 7.34 µM.

With `CCn1cc(-c2c(F)cccc2[C@@H]2CN(C(=O)/C=C/[C@@H](C)NC)Cc3sc(C#N)c(C)c32)c(C(F)(F)F)n1` [Example 218, (S)-4-(2-(1-ethyl-3-(trifluoromethyl)-1 H-pyrazol-4-yl)-3-fluorophenyl)-3-methyl-6-((R, E)-4-(methylamino)pent-2-enoyl)-4,5,6,7-tetrahydrothieno[2,3-c]pyridine-2-carbonitrile], the IC50 turned out to be 0.81 µM.

For `CCn1cc(-c2c(C3CN(C(=O)/C=C/CN(C)C)Cc4sc(C#N)cc43)ccnc2F)c(C(F)(F)F)n1` (stereo not shown) [Example 202, (E)-6-(4-(Dimethylamino)but-2-enoyl)-4-(3-(1-ethyl-3-(trifluoromethyl)-1 H-pyrazol-4-yl)-2-fluoropyridin-4-yl)-4,5,6,7-tetrahydrothieno[2,3-c]pyridine-2-carbonitrile], the 50% inhibitory concentration (IC50) was found to be 24.9 µM.

Consider `CCn1cc(-c2c(F)cccc2[C@@H]2CN(C(=O)/C=C/CN[C@H]3CCOC3)Cc3sc(C#N)cc32)c(C(F)(F)F)n1` [Example 56, (S)-4-(2-(1-ethyl-3-(trifluoromethyl)-1 H-pyrazol-4-yl)-3-fluorophenyl)-6-((E)-4-(((S)-tetrahydrofuran-3-yl)amino)but-2-enoyl)-4,5,6,7-tetrahydrothieno[2,3-c]pyridine-2-carbonitrile], for which the IC50 came out at 1.09 µM.

For the compound `CCn1cc(-c2ccccc2[C@@H]2CN(C(=O)/C=C/CN(C)Cc3ccccc3)Cc3sc(C#N)cc32)c(C(F)(F)F)n1` [Example 33, (S, E)-6-(4-(benzyl(methyl)amino)but-2-enoyl)-4-(2-(1-ethyl-3-(trifluoromethyl)-1 H-pyrazol-4-yl)phenyl)-4,5,6,7-tetrahydrothieno[2,3-c]pyridine-2-carbonitrile], the IC50 is 8.44 µM.
